# Source: article PMC11233931, “Remodeling tumor‐associated macrophage for anti‐cancer effects by rational design of irreversible inhibition of mitogen‐activated protein kinase‐activated protein kinase 2” (MedComm, 2024)
# Tests used:
# [1] = tested on: MRC1 and ARG-1 mRNA in bone marrow-derived macrophages (BMDM); experiment: RT-PCR of M2 markers in IL-4/IL-13 stimulated BMDM; type: cell-based, mouse; conditions: IL-4/IL-13 20 ng/mL
# Excerpt: (§1) A previous study has reported that MK2 fostered M2‐like polarization of TAMs, driving a protumor and proangiogenic phenotype which in turn accelerates tumor progression.[21] We thus assessed the influence of compound 11 on macrophage polarization and function. Our experiments used human THP‐1 monocyte induced macrophages, mouse RAW264.7 macrophages, and mouse bone marrow‐derived macrophages (BMDM). These cells were induced into M2‐like macrophages using the classic IL‐4 and IL‐13 stimuli.
# FIGURE 5 Inhibition of pro‐tumorigenic M2‐like polarization in macrophages by compound 11. (A–C) RT‐PCR analysis highlights the impact of compound 11 on MRC1 and ARG‐1 mRNA expression in various macrophage cells treated with IL‐4/IL‐13 alone or combined with compound 11 for 12 h or 24 h. […] Data are shown as the mean ± SD. ^* p < 0.05; ^*** p < 0.001 versus the vehicle group, determined by unpaired t test. […]
# Total RNA was extracted from cultured cells using the EZ‐press RNA Purification Kit (EZBioscience). Complementary DNA was synthesized using the ABScript III RT Master Mix for qPCR with gDNA remover (ABclonal Technology) and was quantified with primers listed in Table S5. The relative mRNA expression levels were quantified through qPCR using the SYBR green gene expression assay (ABclonal Technology).
# [2] = Cell viability assay (CCK-8), PANC-1; type: cell-based; conditions: PANC-1 cells (pancreatic carcinoma), PANC-1, human pancreatic carcinoma, read-out: IC50 (μM) mean ± SD, cytotoxicity
# Method: (§2) In cellular experiments, cells are seeded into either 6-well or 96-well plates and incubated overnight, proceeding with treatments as described in the figure legends or methods section. The cell inoculation numbers are outlined as follows: For assays measuring cell viability, between 3,000 to 5,000 cells are seeded per well in 96-well plates. For other cellular assays, the seeding density ranges from 5×10^5 to 1×10^6 cells per well in 6-well plates.
# (§3) Cells was plated into 96-well plates and incubated overnight prior to introduction of varying concentrations of compounds or control solvent. Following a 72-hour exposure period, cell viability was determined using a Cell Counting Kit-8 assay (Life-iLab, China). Dose-response curves were fitted using a four-parameter method facilitated by SoftMax Pro, which was subsequently used for the computation of IC50 values.
# [3] = Cell viability assay (CCK-8), Raw264.7; type: cell-based; conditions: Raw264.7 cells (mononuclear macrophage), Raw264.7, mouse mononuclear macrophage, read-out: IC50 (μM) mean ± SD, cytotoxicity
# Method: as §2, §3
# [4] = tested on: CD206 expression in RAW264.7 cells; experiment: Flow cytometry of CD206 in IL-4/IL-13 stimulated RAW264.7; type: cell-based, mouse; conditions: RAW264.7, IL-4/IL-13, 48 h
# Excerpt: as §1
# In the in vitro analysis, cells were harvested, stained with surface antibodies, and subsequently fixed and permeabilized using IC Buffer following manufacturer's guidelines. Antibodies targeting intracellular molecules were used for further staining as cells were incubated for an additional 30 min at 4°C. These cells were then filtered using a 300‐mesh cell sieve prior to analysis via CytoFLEX (Beckman Coulter Life Sciences).
# Figure S3 Inhibition of pro-tumorigenic M2-like polarization in macrophages by compound 11. (A) Illustrates the treatment effects on various macrophage cells using Western blot analysis post IL-4/IL-13 exposure (30 minutes or the specified time period). (B) Examines CD206 expression in RAW264.7 cells via flow cytometry post 48hours treatment of compound 11 and IL-4/IL-13. […] IL-4/IL-13 (20 ng/mL) served as the stimulation control, while untreated cells were the baseline control. […]
smiles,measurement,setting,value
C=CC(=O)Nc1cc(-c2cc(-c3cc4c([nH]3)CCNC4=O)ccn2)ccc1OC(F)(F)F [compound 11],effect on transcriptional level of MRC1 and ARG-1,[1],significantly suppressed
same,IC50 at 72 h,[2],35.3 ± 1.4 µM
same,IC50 at 72 h,[3],31.7 ± 2.9 µM
same,effect on CD206 expression,[4],A similar result
